Measurements from patent US20050287068A1, “Efficacy of active immunotherapy by integrating diagnostic with therapeutic methods” (priority 2004, published 2005).

Test system: PRAME 425-433
Assay: IFN-gamma ELISA on splenocytes restimulated with native peptide after intra-lymph-node immunization
Assay type: in vivo, HHD transgenic mice
Conditions: different concentrations of plasmid or peptide (peptide together with dsRNA), inguinal lymph nodes, days 0, 3, 14 and 18; spleens 10 days after immunization; FIG. 4 in pg IFN-gamma/ml
Source text: HHD transgenic mice (n=4/group) were immunized with a PRAME 425-433 expressing plasmid (as described in U.S. Provisional Application No. __/______ (Atty Docket No. MANNK.053PR), entitled METHODS AND COMPOSITIONS TO ELICIT MULTIVALENT IMMUNE RESPONSES AGAINST DOMINANT AND SUBDOMINANT EPITOPES, EXPRESSED ON CANCER CELLS AND TUMOR STROMA, filed on date even with this disclosure, which is hereby incorporated by reference in its entirety) or peptide together with dsRNA (different concentrations of plasmid or peptide, by direct inoculation into the inguinal lymph nodes with 25 μl of plasmid or peptide in PBS/lymph node, on days 0, 3, 14 and 18. Spleens were harvested at 10 days after completion of immunization, splenocytes were incubated over 48 hours with native peptide (10 μg/ml), supernatants harvested and IFN-gamma concentration measured by ELISA.

## PRAME 425-433 peptide: PRAME 425-433 peptide given together with dsRNA into inguinal lymph nodes (SLLQHLIGL; UniProt P78395 425-433, looked up, fragment)
  magnitude of the immune response (IFN-gamma concentration measured by ELISA): the larger the dose of peptide, the lower the immune response
